Square brackets hold non-standard residues; d marks the D form. Ends that are not written are not given here. Peptide text beside a SMILES is read from it. Phe(3-Br) = N[C@@H](Cc1cccc(Br)c1)C(=O)O; Phe(4-Br) = N[C@@H](Cc1ccc(Br)cc1)C(=O)O; Phe(3-I) = N[C@@H](Cc1cccc(I)c1)C(=O)O; 2Nal = N[C@@H](Cc1ccc2ccccc2c1)C(=O)O; Dmt = Cc1cc(O)cc(C)c1C[C@H](N)C(=O)O; β3hF = N[C@H](CC(=O)O)Cc1ccccc1; Cha = N[C@@H](CC1CCCCC1)C(=O)O; Phe∗ = not defined here; Trp∗ = not defined here
What was measured:
[1] = Stability and degradability of biogels in human plasma (Example 8); format: in vitro ADME; conditions: 37° C.; for half-life at 14 μM: human, plasma, in solution
Procedure: After centrifugation at 14 000 rpm for 15 minutes, 100 μL supernatant was diluted with 100 μL milliQ water in the injection vial. Injection samples were vortexed for 5 seconds and were analyzed by HPLC. […] Calculations were performed using Microsoft® Office Professional 2010 Excel.

[2] = Peptide gelation (tilted tube / inverted vial test, minimum gelation concentration); format: physicochemical; conditions: for Gelation behaviour: 2% w/v, PBS 10 mM, pH 7.4; for Minimum gelation concentration (w/v % in PBS): '/' = no gel
Procedure: The peptide gelation occurred by dissolving the TFA salt of the hexapeptide (2 mg) in 100 μL of PBS solution (pH 7.4) or physiological saline solution (0.9% NaCl).
Both peptides 2 and 4 (Table 1) gave a transparent gel in the same conditions (PBS 10 mM at pH 7.4 with a minimum gelation concentration of 24 mM; 2% w/v). To evaluate the mechanical properties of these hydrogels in a more quantitative manner, rheological experiments were performed. The viscoelastic properties of the peptide hydrogels were measured by dynamic rheometry at 37° C. This technique allowed to measure the storage modulus G′ (corresponding to the material's stiffness or rigidity), loss modulus G″ (corresponding to the viscous properties of the material) and loss factor tan (o) (ratio of G″ over G′). According to the Winter-Chambon criterion, a material reaches gelation in rheological terms if the phase angle o gets frequency-independent (F. Chambon et al., 1987 and H. Winter et al., 1987).
The peptide gelation occurred by dissolving the TFA salt of the peptide in 100 μL of PBS solution or physiological saline solution (0.9% NaCl) (pH 7.4).
The peptide gelation occurs by dissolving the TFA salt of the hydrogelator (1 or 2 mg) in 100 μL of aqueous media, PBS solution (pH 7.4) or physiological saline solution (0.9% NaCl). After successive vortexing and sonication, the gel is left to rest overnight at room temperature.
The hydrogelation was realized under physiologically relevant conditions, namely via the addition of phosphate-buffered saline (PBS) or sterile physiological saline solution (0.9% NaCl). The needed amount of hydrogelator was weighed in an Eppendorf® and solubilized by the addition of the above solutions. After vortex and sonication steps, the resulting solution was left at room temperature until gelation occurred. The gelation was qualitatively verified by the inverted vial test (if no gravitational flow was visible the gelation was considered successful). It can be noticed that all peptide hydrogelators depicted formed gels in PBS and saline solution at a concentration of 1 to 2% w/v.

Compound	Minimum gelation concentration (w/v % in PBS) [2]	also measured
Cc1cc(O)cc(C)c1C[C@H](N)C(=O)N[C@H](CCCCN)C(=O)N[C@@H](Cc1ccccc1)C(=O)N[C@@H](Cc1ccccc1)C(=O)N[C@@H](CCC(N)=O)C(=O)N[C@@H](Cc1ccccc1)C(=O)N[C@@H](CCC(N)=O)C(=O)N[C@@H](Cc1ccccc1)C(=O)N[C@@H](CCCCN)C(N)=O [CM-136, Dmt-OLy:s-Phe-Phe-Gln-Phe*-Gln-Phe*-Lys-NH2] (H-[Dmt][dK]FFQFQFK-NH2)		half-life at 14 μM [1]: ~0.183 h
Ac-Phe-Glu-Phe*-Gln-Phe-Lys-NH2 [peptide 3]		Gelation behaviour [2]: macroscopic aggregation
H-Lys-Phe-Gln-Phe*-Glu-Phe-OH (H-KFQ[Phe∗]EF-OH; not fully specified; reading uncertain) [compound 26]	2 w/v %	
SEQ ID NO: 56, modified by the inclusion of an ester as linker: biogel MOJ-02 modified by an ester linker (spacer) between the hydrogelator part and the biological active ingredient (Y[dR]FFQ[β3hF]FQFK-NH2; not fully specified (residue 9); also: ester linker between hydrogelator part and active ingredient, position not given here)		Biogel formation [2]: able to form a biogel spontaneously
NCCCC[C@H](NC(=O)[C@H](Cc1ccccc1)NC(=O)[C@H](CCC(N)=O)NC(=O)[C@H](Cc1cccc(Br)c1)NC(=O)[C@H](CCC(N)=O)NC(=O)[C@@H](N)Cc1ccccc1)C(N)=O [compound 34, H-Phe-Gln-Phe(3Br)-Gln-Phe-Lys-NH2] (H-FQ[Phe(3-Br)]QFK-NH2)	1-2 w/v %	
H-Leu-Glu-Leu-Gln-Leu-Lys-NH2 (H-LELQLK-NH2) [peptide 6]		Gelation behaviour [2]: remained in solution
NCCCC[C@H](NC(=O)[C@H](Cc1ccc2ccccc2c1)NC(=O)[C@H](CCC(N)=O)NC(=O)[C@H](Cc1ccc2ccccc2c1)NC(=O)[C@H](CCC(=O)O)NC(=O)[C@@H](N)Cc1ccc2ccccc2c1)C(N)=O [compound 13, H-(2-Nal)-Glu-(2-Nal)-Gln-(2-Nal)-Lys-NH2] (H-[2Nal]E[2Nal]Q[2Nal]K-NH2)	2 w/v %	
H-Phe-Glu-Trp*-Gln-Phe-Lys-NH2 (H-FE[Trp∗]QFK-NH2; not fully specified; reading uncertain) [compound 21]	2 w/v %	
H-DPhe-DGlu-DPhe*-DGln-DPhe-DLys-NH2 (H-[dF][dE]F[dQ][dF][dK]-NH2; not fully specified (residue 3)) [compound 17]	2 w/v %	
H-Trp-Glu-Phe*-Gln-Phe-Lys-NH2 (H-WE[Phe∗]QFK-NH2; not fully specified; reading uncertain) [compound 14]	2 w/v %	
NCCCC[C@H](NC(=O)[C@H](Cc1ccc(Br)cc1)NC(=O)[C@H](CCC(N)=O)NC(=O)[C@H](Cc1ccc(Br)cc1)NC(=O)[C@H](CCC(N)=O)NC(=O)[C@@H](N)Cc1ccc(Br)cc1)C(N)=O [compound 35, H-Phe(4Br)-Gln-Phe(4Br)-Gln-Phe(4Br)-Lys-NH2] (H-[Phe(4-Br)]Q[Phe(4-Br)]Q[Phe(4-Br)]K-NH2)	1-2 w/v %	
NCCCC[C@H](NC(=O)[C@H](CC1CCCCC1)NC(=O)[C@H](CCC(N)=O)NC(=O)[C@H](CC1CCCCC1)NC(=O)[C@H](CCC(=O)O)NC(=O)[C@@H](N)CC1CCCCC1)C(N)=O [compound 9, H-Cha-Glu-Cha-Gln-Cha-Lys-NH2] (H-[Cha]E[Cha]Q[Cha]K-NH2)	2 w/v %	Gelation behaviour [2]: formed gels
NCCCC[C@H](NC(=O)[C@H](Cc1cccc(Br)c1)NC(=O)[C@H](CCC(N)=O)NC(=O)[C@H](Cc1cccc(Br)c1)NC(=O)[C@H](CCC(N)=O)NC(=O)[C@@H](N)Cc1ccccc1)C(N)=O [compound 32, H-Phe-Gln-Phe(3Br)-Gln-Phe(3Br)-Lys-NH2] (H-FQ[Phe(3-Br)]Q[Phe(3-Br)]K-NH2)	1-2 w/v %	
H-Phe-Glu-Phe*-Asn-Phe-Lys-NH2 (H-FE[Phe∗]NFK-NH2; not fully specified; reading uncertain) [compound 11]	1 w/v %	
Cc1cc(O)cc(C)c1C[C@H](N)C(=O)N[C@H](CCCNC(=N)N)C(=O)N[C@@H](Cc1ccccc1)C(=O)N[C@@H](Cc1ccccc1)C(=O)N[C@@H](CCC(N)=O)C(=O)N[C@H](CC(=O)N[C@@H](Cc1ccccc1)C(=O)N[C@@H](CCC(N)=O)C(=O)N[C@@H](Cc1ccccc1)C(=O)N[C@@H](CCCCN)C(N)=O)Cc1ccccc1 [CM-137, Dmt-OArg-Phe-Phe-Gln-J3;s-homo-Phe-Phe-Gln-Phe*-Lys-NH2] (H-[Dmt][dR]FFQ[β3hF]FQFK-NH2; N-terminus assumed)		Extent of degradation ([1]; human plasma): the degradation stops after the cleavage of the first Gin; half-life at 14 μM [1]: ~2.05 h
H-DLys-DPhe-DGln-DPhe*-DGlu-DPhe-NH2 (H-[dK][dF][dQ]F[dE][dF]-NH2; not fully specified (residue 4)) [compound 19]	2 w/v %	
H-DLys-DPhe-DAsn-DPhe*-DGlu-DPhe-NH2 (H-[dK][dF][dN]F[dE][dF]-NH2; not fully specified (residue 4)) [compound 22]	2 w/v %	
NCCCC[C@H](NC(=O)[C@H](Cc1cccc(I)c1)NC(=O)[C@H](CCC(N)=O)NC(=O)[C@H](Cc1cccc(I)c1)NC(=O)[C@H](CCC(N)=O)NC(=O)[C@@H](N)Cc1ccccc1)C(N)=O [compound 37, H-Phe-Gln-Phe(3I)-Gln-Phe(3I)-Lys-NH2] (H-FQ[Phe(3-I)]Q[Phe(3-I)]K-NH2)	1-2 w/v %	
NCCCC[C@H](NC(=O)[C@H](Cc1cccc(Br)c1)NC(=O)[C@H](CCC(N)=O)NC(=O)[C@H](Cc1ccccc1)NC(=O)[C@H](CCC(N)=O)NC(=O)[C@@H](N)Cc1ccccc1)C(N)=O [compound 31, H-Phe-Gln-Phe-Gln-Phe(3Br)-Lys-NH2] (H-FQFQ[Phe(3-Br)]K-NH2)	1-2 w/v %	
H-Phe-Glu-Phe*-Lys-Phe-Ser-NH2 (H-FE[Phe∗]KFS-NH2; not fully specified; reading uncertain) [compound 20]	1 w/v %	
H-IEIQIK-NH2 [compound 5, H-Ile-Glu-Ile-Gln-Ile-Lys-NH2]	2 w/v %	Gelation behaviour [2]: formed gels
H-Phe-Glu-Phe*-Asn-Phe-Lys-OH (H-FE[Phe∗]NFK-OH; not fully specified; reading uncertain) [compound 10]	1 w/v %	
H-AEAQAK-NH2 [compound 8, H-Ala-Glu-Ala-Gln-Ala-Lys-NH2]		Gelation behaviour [2]: remained in solution
H-DLys-DPhe-DGlu-DPhe*-DGlu-DPhe-NH2 (H-[dK][dF][dE]F[dE][dF]-NH2; not fully specified (residue 4)) [compound 23]	2 w/v %	
H-VEVQVK-NH2 [compound 7, H-Val-Glu-Val-Gln-Val-Lys-NH2]		Gelation behaviour [2]: remained in solution
NCCCC[C@H](NC(=O)[C@H](Cc1cccc(I)c1)NC(=O)[C@H](CCC(N)=O)NC(=O)[C@H](Cc1ccccc1)NC(=O)[C@H](CCC(N)=O)NC(=O)[C@@H](N)Cc1ccccc1)C(N)=O [compound 36, H-Phe-Gln-Phe-Gln-Phe(3I)-Lys-NH2] (H-FQFQ[Phe(3-I)]K-NH2)	1-2 w/v %	
H-DPhe-DGlu-DPhe*-DGln-DPhe-DLys-OH (H-[dF][dE]F[dQ][dF][dK]-OH; not fully specified (residue 3)) [compound 25]	1 w/v %	
H-Phe-Glu-Phe*-Gln-Trp-Lys-NH2 (H-FE[Phe∗]QWK-NH2; not fully specified; reading uncertain) [compound 15]	2 w/v %	
